# Reference: patent US20240239804A1, “FUROINDAZOLE DERIVATIVES AS ANTAGONISTS OR INHIBITORS OF GPR84” (Bayer Aktiengesellschaft, priority 2021, published 2024)
# Molecular target: T1, human GPR84 receptor (Homo sapiens, UniProt Q9NQS5)
# T1 construct: frozen aliquots prepared by acCELLerate; host or cells: CHO-K1
# Assay: cAMP HTRF assay for identification of cellular GPR84 antagonists
# Type: cell-based
# Conditions: CHO-K1 cells stably expressing human GPR84; Forskolin plus agonist 6-OAU; cAMP HTRF readout; average or median values
# From the text: cAMP HTRF® Assay for Identification of Cellular GPR84 Antagonists
# By using a Homogenous Time-Resolved Fluorescence (HTRF®) based assay (#62AM5PEJ, Cisbio, Condolet, France) the inhibition of the Gi-coupled GPR84 receptor can be detected. CHO-K1 cells stably expressing human GPR84 receptor (purchased from DiscoveRx, now Eurofins) were used and treated with Forskolin (F6886, Sigma, Germany) to stimulate membrane adenylyl cyclases and thereby unspecific cAMP formation. Activation of the Gi-coupled GPR84 by a natural or small molecule agonist (e.g. 6-n-octyl aminouracile, inhouse) results in inhibition of cellular cAMP formation which can be released again by antagonists to this receptor. Detection and quantification of cellular cAMP levels in this HTRF assay is achieved by interaction between a fluorescent cAMP tracer (cAMP-d2) and an Eu-cryptate labelled anti-cAMP antibody. Following excitation at 337 nm this pairing allows for the generation of a fluorescence resonance energy transfer (FRET) between the partners and results in FRET induced emissions at 665 nm and 620 nm, the latter representing background signal by Eu-cryptate labelled anti-cAMP antibody. Maximal signal is obtained in the absence of any cellular cAMP (no competition for the binding of the tracer to the antibody). Given the combination of the Gi coupling properties of GPR84 and the competitive nature of the detection system agonist treatment should result in an increase in the HTRF signal due to lowered cAMP levels. Any signal decrease in the presence of Forskolin, agonist and compound are indicative of antagonist mediated abrogation of GPR84 signalling.
# For the assay, frozen aliquots of CHO-K1 cells expressing hGPR84 (prepared by acCELLerate, Hamburg, Germany) were thawed and a cell suspension (1.67E+06 cells/mL) in assay media (Ham's F12 Nutrient Mix, Thermo Fisher Scientific, Waltham, USA; 5% fetal calf serum, Biomol, Hamburg, Germany) containing cAMP-d2 (dilution 1:20, supplied with the kit #62AM5PEJ, Cisbio, Condolet, France) was prepared. After recovery of cells for 20 minutes at 37° C., 3 μL/well cell suspension including cAMP-d2 were added to a pre-dispensed assay plate (Greiner Bio-One, Kremsmuenster, Austria) containing 50 nl/well test compound in 100% DMSO or 100% DMSO as control. This was followed by a 30 minute incubation step at room temperature. The stimulation time was started by addition of 2 μL/well assay media containing 2.5×EC80 agonist 6-OAU and 2.5×EC90 Forskolin (negative control: 2.5×EC90 Forskolin in assay media) and was continued for 30 minutes at room temperature. The reaction was stopped by addition of 3 μL/well lysis buffer containing cAMP Eu-Cryptate antibody (dilution 1:20) (both supplied with the kit #62AM5PEJ, Cisbio, Condolet, France). To enable complete lysis, plates were incubated for 60 minutes at room temperature before measurement in an HTRF reader, e.g. a PHERAstar (BMG Labtech, Ortenberg, Germany).
# From the fluorescence emissions at 665 nm (FRET) and at 620 nm (background signal of Eu-cryptate) the ratio (emission at 665 nm divided by emission at 620 nm×10000) was calculated and the data were normalized (reaction without test compound, only 100% DMSO=0% inhibition; all other assay components except agonist=100% inhibition). For dose response testing on the same microtiter plate, compounds were tested at 11 different concentrations in the range of 20 μM to 0.07 nM (20 μM, 5.7 μM, 1.6 μM, 0.47 μM, 0.13 μM, 38 nM, 11 nM, 3.1 nM, 0.89 nM, 0.25 and 0.07 nM; dilution series prepared before the assay at the level of the 100-fold conc. stock solutions by serial 1:3.5 dilutions in 100% DMSO) in duplicate values for each concentration. IC50 values were calculated by 4-parameter fitting using a commercial software package (Genedata Screener, Basel, Switzerland).
# Examples were tested in selected biological assays one or more times. […]
# T1 sequence (Q9NQS5 whole entry): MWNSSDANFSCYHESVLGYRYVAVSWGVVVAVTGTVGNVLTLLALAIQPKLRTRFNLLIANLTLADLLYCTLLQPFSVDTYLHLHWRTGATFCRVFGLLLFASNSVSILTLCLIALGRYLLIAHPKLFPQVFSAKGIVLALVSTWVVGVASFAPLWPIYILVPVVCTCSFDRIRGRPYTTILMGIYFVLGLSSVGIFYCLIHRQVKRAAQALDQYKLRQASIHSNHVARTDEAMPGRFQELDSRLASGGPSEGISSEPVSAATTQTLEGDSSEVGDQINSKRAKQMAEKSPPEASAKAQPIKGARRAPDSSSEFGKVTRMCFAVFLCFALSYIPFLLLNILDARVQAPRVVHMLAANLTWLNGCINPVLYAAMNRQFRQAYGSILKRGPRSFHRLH
row,IC50 [µM],Compound
1,0.007,"Cc1ccc(Cn2cc3c(n2)-c2c(oc(C(=O)NC[C@@H]4COCCO4)c2C)CC3)cc1 [Example 2, N-{[(2R)-1,4-dioxan-2-yl]methyl}-8-methyl-2-[(4-methylphenyl)methyl]-4,5-dihydro-2H-furo[2,3-g]indazole-7-carboxamide]"
2,0.14,"Cc1ccc(Cn2cc3c(n2)-c2c(oc(C(=O)NCc4ccon4)c2C)CC3)cc1 [Example 3, 8-methyl-2-[(4-methylphenyl)methyl]-N-[(1,2-oxazol-3-yl)methyl]-4,5-dihydro-2H-furo[2,3-g]indazole-7-carboxamide]"
3,0.023,"Cc1ccccc1Cn1cc2c(n1)-c1c(oc(C(=O)NC[C@@H]3CCCO3)c1C)CC2 [Example 4, 8-methyl-2-[(2-methylphenyl)methyl]-N-[(2S)-tetrahydrofuran-2-ylmethyl]-4,5-dihydro-2H-furo[2,3-g]indazole-7-carboxamide]"
4,0.009,"Cc1ccccc1Cn1cc2c(n1)-c1c(oc(C(=O)NC[C@@H]3COCCO3)c1C)CC2 [Example 5, N-{[(2R)-1,4-dioxan-2-yl]methyl}-8-methyl-2-[(2-methylphenyl)methyl]-4,5-dihydro-2H-furo[2,3-g]indazole-7-carboxamide]"
5,0.24,"Cc1ccccc1Cn1cc2c(n1)-c1c(oc(C(=O)NCc3ccon3)c1C)CC2 [Example 8, 8-methyl-2-[(2-methylphenyl)methyl]-N-[(1,2-oxazol-3-yl)methyl]-4,5-dihydro-2H-furo[2,3-g]indazole-7-carboxamide]"
6,0.042,"Cc1ccc(CNC(=O)c2oc3c(c2C)-c2nn(Cc4ccccc4Cl)cc2CC3)cc1 [Example 10, 2-[(2-chlorophenyl)methyl]-8-methyl-N-[(4-methylphenyl)methyl]-4,5-dihydro-2H-furo[2,3-g]indazole-7-carboxamide]"
7,0.23,"Cc1c(C(=O)NCCN2CCN(C)CC2)oc2c1-c1nn(Cc3ccccc3Cl)cc1CC2 [Example 11, 2-[(2-chlorophenyl)methyl]-8-methyl-N-[2-(4-methylpiperazin-1-yl)ethyl]-4,5-dihydro-2H-furo[2,3-g]indazole-7-carboxamide]"
8,0.3,"Cc1c(C(=O)NCCN2CCCC2)oc2c1-c1nn(Cc3ccccc3Cl)cc1CC2 [Example 12, 2-[(2-chlorophenyl)methyl]-8-methyl-N-[2-(pyrrolidin-1-yl)ethyl]-4,5-dihydro-2H-furo[2,3-g]indazole-7-carboxamide]"
9,0.36,"Cc1c(C(=O)NCCN2CCCCC2)oc2c1-c1nn(Cc3ccccc3Cl)cc1CC2 [Example 13, 2-[(2-chlorophenyl)methyl]-8-methyl-N-[2-(piperidin-1-yl)ethyl]-4,5-dihydro-2H-furo[2,3-g]indazole-7-carboxamide]"
10,1.15,"Cc1c(C(=O)NCCN2CCC2)oc2c1-c1nn(Cc3ccccc3Cl)cc1CC2 [Example 14, N-[2-(azetidin-1-yl)ethyl]-2-[(2-chlorophenyl)methyl]-8-methyl-4,5-dihydro-2H-furo[2,3-g]indazole-7-carboxamide]"
11,0.32,"Cc1c(C(=O)NCCN2CCN(C)CC2)oc2c1-c1nn(Cc3cccc(Cl)c3)cc1CC2 [Example 17, 2-[(3-chlorophenyl)methyl]-8-methyl-N-[2-(4-methylpiperazin-1-yl)ethyl]-4,5-dihydro-2H-furo[2,3-g]indazole-7-carboxamide]"
12,1,"Cc1c(C(=O)NCCN2CCCC2)oc2c1-c1nn(Cc3cccc(Cl)c3)cc1CC2 [Example 18, 2-[(3-chlorophenyl)methyl]-8-methyl-N-[2-(pyrrolidin-1-yl)ethyl]-4,5-dihydro-2H-furo[2,3-g]indazole-7-carboxamide]"
13,0.78,"Cc1c(C(=O)NCCN2CCCCC2)oc2c1-c1nn(Cc3cccc(Cl)c3)cc1CC2 [Example 19, 2-[(3-chlorophenyl)methyl]-8-methyl-N-[2-(piperidin-1-yl)ethyl]-4,5-dihydro-2H-furo[2,3-g]indazole-7-carboxamide]"
14,1.54,"Cc1c(C(=O)NCCN2CCC2)oc2c1-c1nn(Cc3cccc(Cl)c3)cc1CC2 [Example 20, N-[2-(azetidin-1-yl)ethyl]-2-[(3-chlorophenyl)methyl]-8-methyl-4,5-dihydro-2H-furo[2,3-g]indazole-7-carboxamide]"
15,0.34,"Cc1ccc(CNC(=O)c2oc3c(c2C)-c2nn(Cc4ccc(Cl)cc4)cc2CC3)cc1 [Example 22, 2-[(4-chlorophenyl)methyl]-8-methyl-N-[(4-methylphenyl)methyl]-4,5-dihydro-2H-furo[2,3-g]indazole-7-carboxamide]"
16,0.3,"Cc1c(C(=O)NCCN2CCN(C)CC2)oc2c1-c1nn(Cc3ccc(Cl)cc3)cc1CC2 [Example 23, 2-[(4-chlorophenyl)methyl]-8-methyl-N-[2-(4-methylpiperazin-1-yl)ethyl]-4,5-dihydro-2H-furo[2,3-g]indazole-7-carboxamide]"
17,1.05,"Cc1c(C(=O)NCCN2CCCC2)oc2c1-c1nn(Cc3ccc(Cl)cc3)cc1CC2 [Example 24, 2-[(4-chlorophenyl)methyl]-8-methyl-N-[2-(pyrrolidin-1-yl)ethyl]-4,5-dihydro-2H-furo[2,3-g]indazole-7-carboxamide]"
18,1.37,"Cc1c(C(=O)NCCN2CCCCC2)oc2c1-c1nn(Cc3ccc(Cl)cc3)cc1CC2 [Example 25, 2-[(4-chlorophenyl)methyl]-8-methyl-N-[2-(piperidin-1-yl)ethyl]-4,5-dihydro-2H-furo[2,3-g]indazole-7-carboxamide]"
19,1.63,"Cc1c(C(=O)NCCN2CCC2)oc2c1-c1nn(Cc3ccc(Cl)cc3)cc1CC2 [Example 26, N-[2-(azetidin-1-yl)ethyl]-2-[(4-chlorophenyl)methyl]-8-methyl-4,5-dihydro-2H-furo[2,3-g]indazole-7-carboxamide]"
20,0.15,"Cc1c(C(=O)NCc2ccon2)oc2c1-c1nn(Cc3ccc(Cl)cc3)cc1CC2 [Example 27, 2-[(4-chlorophenyl)methyl]-8-methyl-N-[(1,2-oxazol-3-yl)methyl]-4,5-dihydro-2H-furo[2,3-g]indazole-7-carboxamide]"
21,1.01,"Cc1c(C(=O)NCc2ccno2)oc2c1-c1nn(Cc3ccc(Cl)cc3)cc1CC2 [Example 28, 2-[(4-chlorophenyl)methyl]-8-methyl-N-[(1,2-oxazol-5-yl)methyl]-4,5-dihydro-2H-furo[2,3-g]indazole-7-carboxamide]"
22,8.21,"CC(=O)N1CCN(C(=O)CNC(=O)c2oc3c(c2C)-c2nn(Cc4ccc(Cl)cc4)cc2CC3)CC1 [Example 29, N-[2-(4-acetylpiperazin-1-yl)-2-oxoethyl]-2-[(4-chlorophenyl)methyl]-8-methyl-4,5-dihydro-2H-furo[2,3-g]indazole-7-carboxamide]"
23,0.5,"CCNC(=O)CNC(=O)c1oc2c(c1C)-c1nn(Cc3ccc(Cl)cc3)cc1CC2 [Example 30, 2-[(4-chlorophenyl)methyl]-N-[2-(ethylamino)-2-oxoethyl]-8-methyl-4,5-dihydro-2H-furo[2,3-g]indazole-7-carboxamide]"
24,2.53,"CCN(CC)C(=O)CNC(=O)c1oc2c(c1C)-c1nn(Cc3ccc(Cl)cc3)cc1CC2 [Example 31, 2-[(4-chlorophenyl)methyl]-N-[2-(diethylamino)-2-oxoethyl]-8-methyl-4,5-dihydro-2H-furo[2,3-g]indazole-7-carboxamide]"
